Test results: ChEMBL document CHEMBL1944535, “Synthesis, in vitro binding studies and docking of long-chain arylpiperazine nitroquipazine analogues, as potential serotonin transporter inhibitors” (Eur J Med Chem, 2012)

Biological target: Sodium-dependent serotonin transporter (Rattus norvegicus, UniProt P31652)
Assay: Displacement of [3H]-Citalopram from SERT in rat cerebral cortex homogenates after 1 hr by liquid scintillation counter
Assay type: tissue-based

Sodium-dependent serotonin transporter (Rattus norvegicus, UniProt P31652), sequence (P31652 whole entry): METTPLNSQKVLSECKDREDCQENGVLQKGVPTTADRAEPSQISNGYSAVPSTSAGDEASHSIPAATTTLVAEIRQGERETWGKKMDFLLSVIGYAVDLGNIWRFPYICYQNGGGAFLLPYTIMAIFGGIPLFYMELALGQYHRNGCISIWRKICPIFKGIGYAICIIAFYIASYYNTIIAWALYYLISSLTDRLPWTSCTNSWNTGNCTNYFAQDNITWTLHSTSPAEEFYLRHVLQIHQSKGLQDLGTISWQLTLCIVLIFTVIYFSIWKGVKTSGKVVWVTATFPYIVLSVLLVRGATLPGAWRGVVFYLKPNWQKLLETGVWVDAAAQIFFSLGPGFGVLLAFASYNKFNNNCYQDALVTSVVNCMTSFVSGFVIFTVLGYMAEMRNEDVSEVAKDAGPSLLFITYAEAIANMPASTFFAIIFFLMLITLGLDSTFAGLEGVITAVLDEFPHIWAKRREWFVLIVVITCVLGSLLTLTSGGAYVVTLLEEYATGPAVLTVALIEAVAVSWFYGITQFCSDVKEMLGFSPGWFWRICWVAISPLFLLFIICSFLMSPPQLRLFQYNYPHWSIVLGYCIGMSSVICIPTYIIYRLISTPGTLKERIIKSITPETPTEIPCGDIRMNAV

Q: CC1CN(c2ccc3cc([N+](=O)[O-])ccc3n2)CCN1CCCCN1C(=O)CCCC1=O (stereo unspecified) was tested. Which IC50 did it give?
A: 0.268 µM

Q: O=C1CCCC(=O)N1CCCCN1CCN(c2ccc3cc([N+](=O)[O-])ccc3n2)CC1 was tested. Which IC50 did it give?
A: 0.921 µM

Q: Which IC50 does the source give for CC1CN(c2ccc3cc([N+](=O)[O-])ccc3n2)CCN1CCCCN1C(=O)CC2(CCCC2)CC1=O (stereo unspecified) here?
A: 1.35 µM

Q: For O=C1CC2(CCCC2)CC(=O)N1CCCCN1CCN(c2ccc3cc([N+](=O)[O-])ccc3n2)CC1, which IC50 is on record?
A: 25.9 µM

Q: For CC1CN(c2ccc3cc([N+](=O)[O-])ccc3n2)CCN1CCCCN1C(=O)CC(C)(C)CC1=O (stereo unspecified), which IC50 is on record?
A: 0.807 µM

Q: CC1(C)CC(=O)N(CCCCN2CCN(c3ccc4cc([N+](=O)[O-])ccc4n3)CC2)C(=O)C1 was tested. Which IC50 did it give?
A: 0.616 µM

Q: With O=C1c2ccccc2C(=O)N1CCCCN1CCN(c2ccc3cc([N+](=O)[O-])ccc3n2)CC1 as the molecule, how does the IC50 read?
A: 4.13 µM

Q: Which IC50 does the source give for CC1(C)CC(=O)N(CCCCN2CCN(c3ccc4c(Cl)cccc4n3)CC2)C(=O)C1 here?
A: 2.8 µM

Q: With CC(=O)Nc1ccc2nc(N3CCN(CCCCN4C(=O)CC5(CCCC5)CC4=O)CC3)ccc2c1 as the molecule, how does the IC50 read?
A: 18.8 µM

Q: For CC1CN(c2ccc3ccccc3n2)CCN1CCCCN1C(=O)CC(C)(C)CC1=O (stereo unspecified), which IC50 is on record?
A: 0.171 µM

Biological target: Sodium-dependent serotonin transporter (Homo sapiens, UniProt P31645)
Sequence (P31645 whole entry): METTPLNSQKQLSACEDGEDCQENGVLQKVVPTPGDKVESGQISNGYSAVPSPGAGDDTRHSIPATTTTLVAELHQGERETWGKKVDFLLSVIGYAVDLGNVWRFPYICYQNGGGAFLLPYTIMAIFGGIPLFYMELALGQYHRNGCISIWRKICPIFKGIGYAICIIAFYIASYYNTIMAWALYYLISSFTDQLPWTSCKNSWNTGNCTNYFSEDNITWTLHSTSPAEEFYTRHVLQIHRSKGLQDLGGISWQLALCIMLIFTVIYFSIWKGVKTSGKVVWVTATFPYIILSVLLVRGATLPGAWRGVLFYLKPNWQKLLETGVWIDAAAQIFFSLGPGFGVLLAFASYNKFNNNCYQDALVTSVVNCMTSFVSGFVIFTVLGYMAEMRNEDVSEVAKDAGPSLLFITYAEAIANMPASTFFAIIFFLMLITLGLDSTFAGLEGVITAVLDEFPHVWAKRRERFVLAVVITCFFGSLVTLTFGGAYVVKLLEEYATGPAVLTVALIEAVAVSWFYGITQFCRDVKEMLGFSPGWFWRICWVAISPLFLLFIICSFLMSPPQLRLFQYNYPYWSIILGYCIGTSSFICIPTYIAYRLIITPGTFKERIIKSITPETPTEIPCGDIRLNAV
Assay: Displacement of [3H]-5HT from human SERT

Q: Which Ki does the source give for O=[N+]([O-])c1ccc2nc(N3CCNCC3)ccc2c1 [6-NITROQUIPAZINE] here?
A: 0.00017 µM
